Test results taken from patent publication US20150141367A1, “MODULATION OF GROWTH OF BIFIDOBACTERIA USING A COMBINATION OF OLIGOSACCHARIDES FOUND IN HUMAN MILK” (NESTEC S.A., priority 2011, published 2015).

What was measured:
[1] = test system: Bifidobacterium Infantis ATCC 15697; assay: Growth of bifidobacteria in RCM without glucose, optical density at 595 nm over 30 hours; assay type: cell-based; conditions: for growth in wells containing the test ingredient vs control medium: abs 595 nm; for effect on the growth of Bifidobacterium infantis (summary statement): summary in description
Protocol: (§1) Reinforced Clostridia Medium (RCM) was used for cultivating the bifidobacteria. RCM without glucose was used as a control medium. RCM is a well-known medium for cultivating and enumerating anaerobes, which was first formulated by Hirsch and Grinstead, J. Dairy Res., 21:101 (1954). The test ingredients were 2′-fucosyllactose, 6′-sialyllactose and 3′-sialyllactose dissolved in the control medium at the following concentrations: 1 mg/ml 2′-fucosyllactose; 1 mg/ml 6′-sialyllactose; and, 2 mg/ml 3′-sialyllactose. The bifidobacteria were separately grown overnight anaerobically in RCM, and were then measured and diluted to an optical density of 0.1 as measured by absorbance spectroscopy at 595 nm, and were then further diluted ten-fold to make a working stock. For each test, 50 μl of working stock was added to each well of a 96 well plate containing either 200 μl of control medium (48 wells) or 200 μl test ingredient solution (48 wells). The plate was grown anaerobically for 30 hours and optical density was read at abs 595 nm every 15 minutes. The values for like wells were averaged and plotted over time (FIGS. 1, 3, and 5-7), and the area under the curve (AUC) was calculated over the 30-hour period (FIGS. 2 and 4).

[2] = test system: Bifidobacterium Breve ATCC 15700; assay: as above; assay type: cell-based
Protocol: as §1

SMILES | growth in wells containing the test ingredient vs control medium ([1]; 1 mg/ml 6′-sialyllactose, after grown for 12 hours, FIG. 5) | effect on the growth of Bifidobacterium infantis (summary statement) [1] | growth in wells containing the test ingredient vs control medium ([2]; 2 mg/ml 3′-sialyllactose, after grown for 6 hours, abs 595 nm, FIG. 6) | effect on the growth of Bifidobacterium breve (summary statement) ([2]; summary in description) | growth in wells containing the test ingredient vs control medium ([1]; 2 mg/ml 3′-sialyllactose, after grown for 8 hours, FIG. 7)
CC(=O)N[C@H]1[C@H]([C@H](O)[C@H](O)CO)O[C@@](OC[C@H]2O[C@@H](O[C@H]3[C@H](O)[C@@H](O)[C@H](O)O[C@@H]3CO)[C@H](O)[C@@H](O)[C@H]2O)(C(=O)O)C[C@@H]1O [6′-sialyllactose] | significantly greater | stimulates the growth |  |  | 
CC(=O)N[C@H]1[C@H]([C@H](O)[C@H](O)CO)O[C@@](O[C@H]2[C@@H](O)[C@@H](CO)O[C@@H](O[C@H]3[C@H](O)[C@@H](O)C(O)O[C@@H]3CO)[C@@H]2O)(C(=O)O)C[C@@H]1O (stereo partly drawn) [3′-sialyllactose] |  | stimulates the growth | significantly greater | stimulates the growth | significantly greater
